For this assay, the system named is CEM cells HIV-1 protection, formazan growth assay. Nature of the assay: NCI AIDS Antiviral Assay. As to conditions: for IC50: measured here: growth of uninfected CEM cells. An outline of the steps: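 Screen of anti-HIV-1 activity in human CEM cells using a formazan-based growth measurement at five drug concentrations. Hits with 50% or greater protection were repeated, and confirmation required reproducible complete protection.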

We go through 53 compounds from PubChem BioAssay AID179 (DTP/NCI, 2004).

Calls of active or inactive are those of the source.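 The calls were made as follows: active = compounds giving half or more protection of infected cells from virus-caused growth loss, again on retest; inactive = the rest.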

`CC(C)CCCC(C)[C@H]1CC[C@H]2[C@@H]3CC[C@H]4C[C@@H](CCC=C(c5cc(Cl)c(O)c(C(=O)OCc6ccccc6)c5)c5cc(Cl)c(O)c(C(=O)OCc6ccccc6)c5)CC[C@]4(C)[C@H]3CC[C@]12C` (some centres undefined): the result was inactive.
Regarding `Nc1ncc(C=O)c(NCC2(CO)CCC2)n1`, the EC50 is more than 200 µM and the IC50 worked out at 20.9 µM.
Turning to `CCCNC(=O)N(CCN(C)C)S(=O)(=O)c1ccc(Cl)cc1`, the outcome was inactive.
Take `Clc1c2ncccc2cc2n[nH]nc12`: the EC50 was more than 200 µM and the IC50 is more than 100 µM.
The matching figures for `Cc1ccc(-c2n[nH]c(=O)n2N)cc1`: more than 200 µM and more than 200 µM.
For `COC(=O)[C@@H]1COC(=O)N1` the same measures were more than 200 µM and more than 200 µM.
For `COC1OC(C(=O)O)C2OC(C)(C)OC12` (centres undefined) the same measures were more than 200 µM and more than 200 µM.
Regarding `NC(N)=N/N=C/c1c[nH]c2ccccc12`, the EC50 is more than 955 µM and the IC50 was determined as 55 µM.
As to `CC(C)(C)C1CCC2(CC1)CCN(N1CCCCCC1)CC2`, the EC50 was more than 100 µM and the IC50 was 91.2 µM.
The matching figures for `CC(Cc1ccccc1)N(C)Cc1nc(C2CCC([N+](=O)[O-])O2)no1` (centres undefined): more than 200 µM and 36.3 µM.
Consider `O=C1c2ccccc2C(=O)N1CCN(CCN1C(=O)c2ccccc2C1=O)Cn1cccn1`, for which the outcome was inactive.
For `COC(=O)C1Cc2c([nH]c3ccccc23)[C@H](CC(C)C)N1` (some centres undefined), the outcome was inactive.
`CCOC(=O)c1c(NC(=O)Nc2ccccc2)c(C(N)=O)c2n1CCCCC2`: the EC50 was more than 100 µM and the IC50 was more than 100 µM.
On to `COC(=O)C(CC(=O)Nc1ccc(C)cc1)C(=O)C(=O)Nc1ccccc1C(C)C` (centres undefined), for which the EC50 is more than 229 µM and the IC50 was more than 229 µM.
Turning to `COCCCNC(=O)C1C(=O)C(=O)N(CCCOC)C1=O` (centres undefined), the outcome was inactive.
On to `NCCCN(CCCN)CCN(CCN(CCCN)CCCN)CCN(CCCN)CCCN`, for which the EC50 is more than 200 µM and the IC50 is 57.5 µM.
For `CS(=O)(=O)OC1C(COC(=O)c2ccccc2)OC2C1Oc1nc(=O)ccn12` (centres undefined) the same measures were more than 200 µM and more than 200 µM.
For `CC(=O)Nc1cc2c(cc1O)CC[C@@H]1[C@@H]2CC[C@]2(C)[C@@H](O)CC[C@@H]12` the same measures were more than 200 µM and 20.9 µM.
The matching figures for `N#C/C(C(=O)Nc1ccc(Cl)cc1)=C(/N)N1CCCC1`: more than 200 µM and more than 200 µM.
Take `COC(=O)/C=C/C1C(C(=O)OC)C2(C(=O)OC)CCC1(C(=O)OC)N2` (centres undefined): the result was inactive.
As for `CCOC1=C(c2ccccc2)Oc2cccnc2-n2cccc21`, the EC50 is more than 200 µM and the IC50 worked out at 138 µM.
The matching figures for `CN(C)C(=O)COc1ccc(Cl)cc1Cl`: more than 200 µM and more than 200 µM.
The matching figures for `Cc1ccc(-n2cc(-c3ccc(Cl)cc3)c(C#N)c2N)cc1`: more than 200 µM and 22.4 µM.
Take `CCc1n[nH]c(=O)n1/N=C/c1ccccc1Cl`: the EC50 was more than 200 µM and the IC50 was more than 200 µM.
As to `CCOC(=O)C(NC(=O)c1ccccc1)(N1CCN(c2cc3c(cc2F)c(=O)c(C(=O)O)cn3C2CC2)CC1)C(F)(F)F` (centres undefined), the EC50 is more than 200 µM and the IC50 stood at 20.4 µM.
For `CCOC(=O)/C=C(/C)Nc1nc2c(c(C(=O)OC)c1C#N)CCCC2` the same measures were more than 200 µM and more than 200 µM.
In the case of `Cc1cccc(N2C(=O)C3c4[nH]c5ccccc5c4C4CCC(C(C)(C)C)CC4C3C2=O)c1` (centres undefined), the EC50 is more than 200 µM and the IC50 turned out to be 38.9 µM.
For `CCOC(=O)c1c(C)nc2c3ccccc3c(C#N)c(C)n12` the same measures were more than 100 µM and more than 100 µM.
For `COC(=O)C(C)(C)C(OP1(=S)OCCN1C)=C(C)C` (centres undefined) the same measures were more than 117 µM and more than 117 µM.
The matching figures for `CCCCCCCCCCCCCCCCCCNC(=S)/N=C/c1c(O)cc(C)oc1=O`: more than 200 µM and 32.4 µM.
For the compound `C/C(=C(/C)c1ccc(O)cc1)c1ccc(O)cc1`, the EC50 was more than 200 µM and the IC50 came out at 52.5 µM.
Take `O=C(/C=C/c1ccccc1)CC(=O)/C=C/c1ccccc1`: the EC50 is more than 200 µM and the IC50 was 30.9 µM.
As for `c1ccc(NNCC[P+](c2ccccc2)(c2ccccc2)c2ccccc2)cc1`, the EC50 is more than 200 µM and the IC50 stood at 2.88 µM.
The matching figures for `CC1S(=O)(=O)OCCCOS1(=O)=O`: more than 1070 µM and more than 1070 µM.
With `O=C(O)CN(c1ccccc1)S(=O)(=O)c1cccc([N+](=O)[O-])c1`, the result was inactive.
Regarding `O=C1c2cccc(O)c2C(=O)c2cccc(O)c21`, the EC50 was more than 4.37 µM and the IC50 was more than 4.37 µM.
For `O=C(/C(=C/c1cccs1)c1ccccc1)c1ccccc1`, the EC50 is more than 200 µM and the IC50 was more than 200 µM.
On to `COc1cc(-c2cc(-c3cc(C)cc(Cl)c3O)nc3ncnc(N)c23)ccc1O`, for which the EC50 is more than 200 µM and the IC50 was 10.7 µM.
The matching figures for `C=C1CCC/C(=N/NC(N)=O)C12CC2`: more than 200 µM and more than 200 µM.
The matching figures for `CCN(CC)C(=S)N=N/C(C)=C1/C=CC=CN1O`: more than 200 µM and 1.1 µM.
For `ClC(=C(c1ccc(OC2CCCCO2)cc1)c1ccc(OC2CCCCO2)cc1)c1ccccc1` (centres undefined) the same measures were more than 100 µM and 87.1 µM.
With `Cc1ccc(S(=O)(=O)N/N=C2/CCC(C(C)(C)C)CC2Br)cc1` (centres undefined), the EC50 is more than 200 µM and the IC50 was determined as 30.9 µM.
The matching figures for `CSC1SCC2C(=O)N(C)C(C(C)C)C(=O)OCC(NC(=O)c3cnc4ccccc4n3)C(=O)NC(C)C(=O)N(C)C1C(=O)N(C)C(C(C)C)C(=O)OCC(NC(=O)c1cnc3ccccc3n1)C(=O)NC(C)C(=O)N2C` (centres undefined): more than 0.12 µM and 0.000355 µM.
For `Nc1nc(Cl)cc(OCC2(CO)CCC2)n1` the same measures were more than 200 µM and 135 µM.
As for `CC(C)CN(CC(C)C)CN1C(=O)/C(=C/c2ccc([N+](=O)[O-])cc2)SC1=S`, the EC50 was more than 200 µM and the half-maximal inhibitory concentration (IC50) stood at 15.8 µM.
For `NCCCN(CCCN(C(=O)Nc1ccccc1)c1ccccc1)C(=O)Nc1ccccc1` the same measures were more than 200 µM and 55 µM.
Turning to `C[N+](C)(C)CC1CCC/C1=N\OC(=O)c1ccccc1` (centres undefined), the EC50 is more than 617 µM and the IC50 was more than 617 µM.
For the compound `CN1C(=O)N(C)C(N2CCCC2)c2c1nc1ccccn1c2=O` (centres undefined), the EC50 was more than 219 µM and the IC50 was 66.1 µM.
The matching figures for `COC1OC(Cn2cc([N+](=O)[O-])nc2C)C(O)C(O)C1O` (centres undefined): more than 200 µM and more than 200 µM.
The matching figures for `Cc1cc(C)c(NS(=O)c2cccc([N+](=O)[O-])c2)c(C)c1` (centres undefined): more than 30.9 µM and more than 30.9 µM.
For `COc1cccc2c1C1(O)C2CCCC12OCCCO2` (centres undefined) the same measures were more than 200 µM and more than 200 µM.
Turning to `c1ccc2c(c1)ccn2CCc1c[nH]c2ccccc12`, the EC50 is more than 200 µM and the concentration for half-maximal inhibition (IC50) was more than 200 µM.
Turning to `CC1CC(C)(C)N=C(CCC[N+](=O)[O-])O1` (centres undefined), the EC50 was more than 200 µM and the IC50 is more than 200 µM.
